Target: T1, Aromatase (Homo sapiens, UniProt P11511)
T1 sequence (P11511 whole entry): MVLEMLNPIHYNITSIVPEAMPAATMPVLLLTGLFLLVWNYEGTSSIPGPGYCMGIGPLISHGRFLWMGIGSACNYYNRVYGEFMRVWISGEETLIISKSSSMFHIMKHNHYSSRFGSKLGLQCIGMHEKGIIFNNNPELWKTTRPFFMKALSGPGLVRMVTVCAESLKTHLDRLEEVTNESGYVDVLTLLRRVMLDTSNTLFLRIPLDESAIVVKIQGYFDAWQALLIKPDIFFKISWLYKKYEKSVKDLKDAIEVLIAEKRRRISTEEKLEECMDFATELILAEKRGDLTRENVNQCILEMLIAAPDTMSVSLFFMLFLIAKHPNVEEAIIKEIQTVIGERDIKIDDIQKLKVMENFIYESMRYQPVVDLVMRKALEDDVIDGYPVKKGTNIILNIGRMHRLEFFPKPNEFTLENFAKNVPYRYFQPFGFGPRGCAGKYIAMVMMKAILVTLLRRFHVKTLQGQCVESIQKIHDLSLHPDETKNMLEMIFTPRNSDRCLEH
Assay: Inhibition of human aromatase extracted from placental microsomes using [1beta-3H]AD as substrate by radiometric assay
Conditions: not given

SMILES	IC50 [nM]
C[C@H]1C[C@@]2(C)C(=CC1=O)CC[C@@H]1[C@@H]2CC[C@]2(C)C(=O)CC[C@@H]12	250
C=C1C[C@@]2(C)C(=CC1=O)CC[C@@H]1[C@@H]2CC[C@]2(C)C(=O)CC[C@@H]12	550
C[C@@H]1C[C@@]2(C)C(=CC1=O)CC[C@@H]1[C@@H]2CC[C@]2(C)C(=O)CC[C@@H]12	690
CC1(C)C[C@@]2(C)C(=CC1=O)CC[C@@H]1[C@@H]2CC[C@]2(C)C(=O)CC[C@@H]12	89

Target: T1, Aromatase
Assay: Competitive inhibition of human aromatase extracted from placental microsomes by Dixon plot analysis in presence of [1beta-3H]AD
Conditions: read-out: Ki

SMILES	Ki [nM]
C[C@H]1C[C@@]2(C)C(=CC1=O)CC[C@@H]1[C@@H]2CC[C@]2(C)C(=O)CC[C@@H]12	22
CO[C@H]1C=C2C(=O)C[C@@H]3[C@H](CC[C@]4(C)C(=O)CC[C@@H]34)[C@@]2(C)CC1	700
CO[C@@H]1C[C@@]2(C)C(=CC1=O)CC[C@@H]1[C@@H]2CC[C@]2(C)C(=O)CC[C@@H]12	670
C=C1C[C@@]2(C)C(=CC1=O)CC[C@@H]1[C@@H]2CC[C@]2(C)C(=O)CC[C@@H]12	68
C[C@@H]1C[C@@]2(C)C(=CC1=O)CC[C@@H]1[C@@H]2CC[C@]2(C)C(=O)CC[C@@H]12	55
CCO[C@@H]1C[C@@]2(C)C(=CC1=O)CC[C@@H]1[C@@H]2CC[C@]2(C)C(=O)CC[C@@H]12	670
CC1(C)C[C@@]2(C)C(=CC1=O)CC[C@@H]1[C@@H]2CC[C@]2(C)C(=O)CC[C@@H]12	8.8
C[C@]12CCC(=O)C=C1C(=O)C[C@@H]1[C@@H]2CC[C@]2(C)C(=O)[C@H](O)C[C@@H]12	1180
C[C@]12C[C@@H](Br)C(=O)C=C1CC[C@@H]1[C@@H]2CC[C@]2(C)C(=O)CC[C@@H]12	45
C[C@]12C[C@@H](Cl)C(=O)C=C1CC[C@@H]1[C@@H]2CC[C@]2(C)C(=O)CC[C@@H]12	45
C[C@]12C[C@@H](O)C(=O)C=C1CC[C@@H]1[C@@H]2CC[C@]2(C)C(=O)CC[C@@H]12	670

Same assay, conditions: read-out: Ki(app)

SMILES	Ki [nM]
C[C@]12CCC(=O)C=C1C(=O)C[C@@H]1[C@@H]2CC[C@]2(C)C(=O)[C@H](Br)C[C@@H]12	150

Target: T1, Aromatase
Assay: Inhibition of human aromatase extracted from placental microsomes using [1beta-3H]androstenedione as substrate after 20 mins by radiometric assay
Conditions: not given

SMILES	IC50 [nM]
CC1=C[C@@]2(C)C(=CC1=O)CC[C@@H]1[C@@H]2CC[C@]2(C)C(=O)CC[C@@H]12	580
C[C@]12CCCC=C1C(=O)C[C@@H]1[C@@H]2CC[C@]2(C)C(=O)CC[C@@H]12	1700
C[C@]12CC[C@H](OC=O)C=C1C(=O)C[C@@H]1[C@@H]2CC[C@]2(C)C(=O)CC[C@@H]12	1700
C[C@]12C=C(CCCc3ccccc3)C(=O)C=C1CC[C@@H]1[C@@H]2CC[C@]2(C)C(=O)CC[C@@H]12	140
CC1=C[C@@]2(C)C(=CC1=O)[C@@H](Br)C[C@@H]1[C@@H]2CC[C@]2(C)C(=O)CC[C@@H]12	710
CC(=O)O[C@@H]1C=C2C(=O)C[C@@H]3[C@H](CC[C@]4(C)C(=O)CC[C@@H]34)[C@@]2(C)CC1	1700

Target: T1, Aromatase
Assay: Competitive inhibition of human aromatase extracted from placental microsomes by Dixon plot analysis in presence of [1beta-3H]androstenedione
Conditions: read-out: Ki

SMILES	Ki [nM]
CC[C@]12C=CC(=O)C=C1CC[C@H]1[C@@H]3CCC(=O)[C@@]3(C)CC[C@@H]12	8.2
C[C@]12CCCC=C1C(=O)C[C@@H]1[C@@H]2CC[C@]2(C)C(=O)CC[C@@H]12	610
CC[C@]12CCC(=O)C=C1C=C[C@@H]1[C@@H]2CC[C@]2(C)C(=O)CC[C@@H]12	8.2
C[C@]12CC[C@H]3[C@@H](C(=O)C=C4CCCC[C@@]43CO)[C@@H]1CCC2=O	11100
CC[C@]12CCC(=O)C=C1CC[C@@H]1[C@@H]2CC[C@]2(C)C(=O)CC[C@@H]12	8.2
C[C@]12CC[C@H](OC=O)C=C1C(=O)C[C@@H]1[C@@H]2CC[C@]2(C)C(=O)CC[C@@H]12	16000
CC(=O)O[C@@H]1C=C2C(=O)C[C@@H]3[C@H](CC[C@]4(C)C(=O)CC[C@@H]34)[C@@]2(C)CC1	5500
CC[C@]12C=CC(=O)C=C1C=C[C@H]1[C@@H]3CCC(=O)[C@@]3(C)CC[C@@H]12	8.2
C[C@]12CCCCC1=CC(=O)[C@@H]1[C@@H]2CC[C@]2(C)C(=O)CC[C@@H]12	143

Same assay, conditions: read-out: Ki(app)

SMILES	Ki [nM]
C[C@]12CC[C@H]3[C@@H](C(=O)C=C4CCCC[C@@]43O)[C@@H]1CCC2=O	1100
CC[C@@H]1C[C@@H]2[C@H](CC[C@]3(C)C(=O)CC[C@@H]23)[C@@]2(C)C=CC(=O)C=C12	4.7

Target: T1, Aromatase
Assay: Competitive inhibition of human aromatase extracted from placental microsomes after 10 mins in presence of [1beta-3H]androstenedione
Conditions: not given

SMILES	Ki [nM]
C/C=C1\C[C@@H]2[C@H](CC[C@]3(C)C(=O)CC[C@@H]23)[C@@]2(C)CCC(=O)C=C12	4.9
CC[C@@H]1C[C@@H]2[C@H](CC[C@]3(C)C(=O)CC[C@@H]23)[C@@]2(C)CCC(=O)C=C12	1.4
C[C@]12CCC(=O)C=C1[C@@H](Cc1ccccc1)C[C@@H]1[C@@H]2CC[C@]2(C)C(=O)CC[C@@H]12	10
C#CC[C@H]1C[C@@H]2[C@H](CC[C@]3(C)C(=O)CC[C@@H]23)[C@@]2(C)CCC(=O)C=C12	37
C[C@H]1C[C@@H]2[C@H](CC[C@]3(C)C(=O)CC[C@@H]23)[C@@]2(C)CCC(=O)C=C12	1.4
C[C@@H]1C[C@@H]2[C@H](CC[C@]3(C)C(=O)CC[C@@H]23)[C@@]2(C)CCC(=O)C=C12	1.4
CCCC[C@@H]1C[C@@H]2[C@H](CC[C@]3(C)C(=O)CC[C@@H]23)[C@@]2(C)CCC(=O)C=C12	1.4
C=C[C@@H]1C[C@@H]2[C@H](CC[C@]3(C)C(=O)CC[C@@H]23)[C@@]2(C)CCC(=O)C=C12	5.1
CCCC[C@H]1C[C@@H]2[C@H](CC[C@]3(C)C(=O)CC[C@@H]23)[C@@]2(C)CCC(=O)C=C12	1.4
C#CC[C@@H]1C[C@@H]2[C@H](CC[C@]3(C)C(=O)CC[C@@H]23)[C@@]2(C)CCC(=O)C=C12	10

Target: T1, Aromatase
Assay: Competitive inhibition of human aromatase extracted from placental microsomes by Lineweaver- Burk plots analysis in presence of 4-androstene-3,17-dione
Conditions: not given

SMILES	Ki [nM]
C[C@]12CCC(=O)C=C1C[C@@H](Sc1ccc3ccccc3c1)[C@@H]1[C@@H]2CC[C@]2(C)C(=O)CC[C@@H]12	24.1
CN(C)c1cccc2c(S(=O)(=O)Nc3ccc(S[C@@H]4CC5=CC(=O)CC[C@]5(C)[C@H]5CC[C@]6(C)C(=O)CC[C@H]6[C@H]45)cc3)cccc12	24.1
C[C@]12CCC(=O)C=C1C[C@@H](Sc1cccc3ccccc13)[C@@H]1[C@@H]2CC[C@]2(C)C(=O)CC[C@@H]12	24.1
C[C@]12CCC(=O)C=C1C[C@@H](Sc1ccc(Nc3ccc([N+](=O)[O-])cc3[N+](=O)[O-])cc1)[C@@H]1[C@@H]2CC[C@]2(C)C(=O)CC[C@@H]12	24.1

Target: T1, Aromatase
Conditions: not given

SMILES	Ki [nM]
C[C@@]12CCC[C@H]1[C@@H]1CCC3=CC(=O)C=C[C@]3(C)[C@H]1CC2	260
C[C@]12CC[C@H]3[C@@H](CCC4=CC(=O)C=C[C@@]43C)[C@@H]1CC[C@@H]2O	260
C[C@]12CC[C@H]3[C@@H](CCC4=CC(=O)CC[C@@]43[C@@H]3CS3)[C@@H]1CCC2=O	2
C[C@]12C=CC(=O)C=C1CC[C@@H]1[C@@H]2CC[C@]2(C)C(=O)OC[C@@H]12	260

Target: T1, Aromatase
Assay: Competitive inhibition of aromatase (unknown origin)
Conditions: not given

SMILES	Ki [nM]	IC50 [nM]
C[C@]12CCC3C(C[C@H]4COC[C@@]35CCC(=O)C=C45)C1CCC2=O (stereo partly specified)	10000	–
C[C@]12CC[C@H]3[C@@H](CCC4=CC(=O)[C@H]5CC[C@]43C5)[C@@H]1CCC2=O	10000	–
C[C@]12CC[C@H]3[C@@H](CC=C4[C@H]5CSC[C@]43CCC5=O)[C@@H]1CCC2=O	10000	–
CSC[C@]12CCC(=O)C=C1CC[C@@H]1[C@@H]2CC[C@]2(C)C(=O)CC[C@@H]12	1	–
C=CC1OC2(O)CC[C@]13C(=CC[C@@H]1[C@@H]3CC[C@]3(C)C(=O)CC[C@@H]13)C2 (stereo partly specified)	10000	–
C[C@]12CC[C@H]3[C@@H](CCC4=CC(=O)CC[C@@]43C(=O)C(F)(F)F)[C@@H]1CCC2=O	–	26000
C[C@]1(CC#N)CC[C@H]2[C@@H](CCC3=CC(=O)CC[C@@]32C)[C@@H]1CC#N	10000	–
C[C@]12CC[C@H]3[C@@H](CCC4=CC(=O)CC[C@@]43CN=[N+]=[N-])[C@@H]1CCC2=O	5	–

Target: T1, Aromatase
Assay: Inhibition of human aromatase after 30 mins by fluorescence assay
Conditions: not given

SMILES	IC50 [nM]
COc1ccc([C@@H]2[C@H]3C[C@H]4[C@@H]5CCC6=CC(=O)C=C[C@]6(C)[C@H]5CC[C@]4(C)C3=NN2C)cc1	1820
C[C@]12C=CC(=O)C=C1CC[C@@H]1[C@@H]2CC[C@]2(C)C3=NN(c4ccccc4)[C@H](c4ccccc4)[C@H]3C[C@@H]12	1820
COc1ccc([C@@H]2[C@H]3C[C@H]4[C@@H]5CCC6=CC(=O)C=C[C@]6(C)[C@H]5CC[C@]4(C)C3=NN2c2ccccc2)cc1	1820

Target: T1, Aromatase
Assay: Inhibition of human aromatase extracted from placental microsomes using 4-[14C]androstenedione as substrate at 0.25 to 1.25 uM after 15 mins
Conditions: not given

SMILES	INH [%]
C[C@]12CC[C@H]3[C@@H](CCC4=CC(=O)CC[C@@]43N=C=O)[C@@H]1CCC2=O	< 20
C[C@]12CC[C@H]3[C@@H](CCC4=CC(=O)CC[C@@]43CNC(=O)C(F)(F)F)[C@@H]1CCC2=O	< 20
C[C@]12CC[C@H]3[C@@H](CCC4=CC(=O)CC[C@@]43N)[C@@H]1CCC2=O	< 20
COC(=O)N[C@]12CCC(=O)C=C1CC[C@H]1[C@@H]3CCC(=O)[C@@]3(C)CC[C@@H]12	< 20
C[C@]12CC[C@H]3[C@@H](CCC4=CC(=O)CC[C@@]43/C=N/O)[C@@H]1CCC2=O	< 20
CC(=O)NC[C@]12CCC(=O)C=C1CC[C@@H]1[C@@H]2CC[C@]2(C)C(=O)CC[C@@H]12	< 20

Target: T1, Aromatase
Conditions: not given
Remark: another data set of the same source

SMILES	Ki [nM]
CC1=C[C@@]2(C)C(=CC1=O)CC[C@@H]1[C@@H]2CC[C@]2(C)C(=O)CC[C@@H]12	46
C[C@]12C=C(CCCc3ccccc3)C(=O)C=C1CC[C@@H]1[C@@H]2CC[C@]2(C)C(=O)CC[C@@H]12	16.1
CC1=C[C@@]2(C)C(=CC1=O)[C@@H](Br)C[C@@H]1[C@@H]2CC[C@]2(C)C(=O)CC[C@@H]12	81

Source: ChEMBL document CHEMBL3751755, “Developing steroidal aromatase inhibitors-an effective armament to win the battle against breast cancer” (Eur J Med Chem, 2015)
